# According to patent US10952433B2, “Solutions for enhancing the effectiveness of insecticides and fungicides on living plants and related methods” (priority 2015, dated 2021):
# Like-named read-outs stand apart in the source and are kept apart here.
# Key:
# [1] = tested on: lepidopteran larvae: cabbage loopers (Trichoplusia ni) and beet armyworms (Spodoptera exigua); assay type: in vivo; conditions: leaf discs
# Description: A second series of tests involved romaine lettuce discs approximately ⅝ inch in diameter. (L. sativa). They were dipped in the treatment solution one second per disc. This test involved the 5/5 configuration, i.e., 5 treated and 5 untreated. The infestation involved […] lepidopteran larvae at the 3rd to 4th instar development per container: four cabbage loopers (Trichoplusia ni), and four beet armyworms (Spodoptera exigua) were employed. The test containers were placed in a dark humidity cabinet at 15° C. and 80% relative humidity. Visual evaluations of the average percent damage were taken at 24, 48 and 72 hours after the initiation of infestation. Damage was evaluated in 5% increments based on total disc area.
# In the tests reported in Table 8 pages 29-32), romaine lettuce leaf discs ⅝″ in diameter (L. sativa) were dipped in the treatment solution for about one second per disc. Infestation was provided by eight lepidopteran larvae at the 3rd to 4th instar development per container. Four cabbage loopers (Trichoplusia ni) and four beet armyworms (Spodoptera exigua) were employed in infestation. The containers were placed in a dark humidity cabinet at 15° C. and 80% relative humidity. Visual observations of the average percent damage was taken at 24, 48 and 72 hours after infestation. Damage evaluation was by 5% increments over the total disc area.
# In the tests results provided in Table 8, the identity and concentrations of the insecticide was identical to the tests results reported in Table 7. The concentration of 200:1 was employed for the no amino oxide, no buffer and buffered amine oxide system. This series of tests, however, reported how the percent damage changed with time at the respective 24, 48 and 72 hour intervals.
# [2] = tested on: lepidopteran larvae: cabbage loopers (Trichoplusia ni) and beet armyworms (Spodoptera exigua); assay type: in vivo; conditions: plants
# Procedure: In a first group of tests, the results of which are shown in Table 7 (pages 22-24), romaine lettuce plants two to three inches in height were exposed to 10 milliliters of solution applied to each plant using a low volume trigger spray. With respect to containers 0-7, ten plants were employed per container, nine were treated and one was an internal control. In containers M-H, ten plants per container were used, five were treated and 5 were internal controls. Each container was infested with 30 lepidopteran larvae between the 5th and 6th instar development. Fifteen cabbage loopers (Trichoplusia ni) and 15 beet armyworms (Spodoptera exigua) were used to infest the romaine lettuce plants. Visual evaluations for the average percentage total surface area damage were taken 24 hours after infestation. Percentage damage was evaluated by 5% increments for total damage across all plant leaves.
# As indicated in the first column of Table 7, in some tests, no insecticide was employed and there were two controls; a no water control and a no dye control. A wide variety of insecticides selected from the following group were tested: Chlorantranilopril, Acephate, Methoxyfenozide, Spinosad, Permethrin, and Indoxacarb. The product concentration is shown in PPM in column 2. Column 3 is divided into two subunits, the first being CO3 and the second, PO4. In all instances in columns 3, 4 and 5 and their sub-columns, the concentrations used were 200:1. The fourth column employed amine oxide, but no buffer. […] Two sub-columns each are represented for CO3 and PO4. The final column is a reading of the Percent Lepidopteran Damage to the romaine lettuce plants after 24 hours.
# In addition to testing the buffered amine system of the present invention with the two amine oxides identified as CO3 and PO4 and their use with 12 carbon length and a mixture of 12 and 18 designated 1218 for comparative data purposes various differences were created in the testing. Some of the tests were performed with (a) no insecticide along with (b) no amine oxide for CO3 and PO4 and (c) with no buffer, but with amine oxide. Also, tests were run using no insecticide and no water control with no foliar application being made. Tests with no insecticide and no dye control employed foliar application of water only. The tests were conducted with all of the testing on the buffer alone, the amine oxide alone and the buffered amine oxide system of the present invention in the concentration of 200:1.
# [3] = insecticide + CO3 buffer 200:1, no amine oxide, PPM: Chlorantranilopril 60, Acephate 70, Methoxyfenozide 100, Spinosad 30, Permethrin 10, Indoxacarb 50
# [4] = insecticide + PO4 buffer 200:1, no amine oxide, PPM: Chlorantranilopril 60, Acephate 70, Methoxyfenozide 100, Spinosad 30, Permethrin 10, Indoxacarb 50
# [5] = insecticide + amine oxide 12, no buffer, 200:1, PPM: Chlorantranilopril 60, Acephate 70, Methoxyfenozide 100, Spinosad 30, Permethrin 10, Indoxacarb 50
# [6] = insecticide + amine oxide 1218, no buffer, 200:1, PPM: Chlorantranilopril 60, Acephate 70, Methoxyfenozide 100, Spinosad 30, Permethrin 10, Indoxacarb 50
# [7] = insecticide + buffered amine oxide system CO3, 12, 200:1, PPM: Chlorantranilopril 60, Acephate 70, Methoxyfenozide 100, Spinosad 30, Permethrin 10, Indoxacarb 50
# [8] = insecticide + buffered amine oxide system CO3, 1218, 200:1, PPM: Chlorantranilopril 60, Acephate 70, Methoxyfenozide 100, Spinosad 30, Permethrin 10, Indoxacarb 50
# [9] = insecticide + buffered amine oxide system PO4, 12, 200:1, PPM: Chlorantranilopril 60, Acephate 70, Methoxyfenozide 100, Spinosad 30, Permethrin 10, Indoxacarb 50
# [10] = insecticide + buffered amine oxide system PO4, 1218, 200:1, PPM: Chlorantranilopril 60, Acephate 70, Methoxyfenozide 100, Spinosad 30, Permethrin 10, Indoxacarb 50
# [11] = insecticide alone, highest, PPM: Chlorantranilopril 120, Acephate 140, Methoxyfenozide 200, Spinosad 60, Permethrin 20, Indoxacarb 100
# [12] = insecticide alone, increased, PPM: Chlorantranilopril 90, Acephate 105, Methoxyfenozide 150, Spinosad 45, Permethrin 15, Indoxacarb 75
# [13] = insecticide alone, PPM: Chlorantranilopril 60, Acephate 70, Methoxyfenozide 100, Spinosad 30, Permethrin 10, Indoxacarb 50
structure (smiles),measurement,setting,value
COP(=O)(NC(C)=O)SC (centres unmarked) [Acephate],Percent Lepidopteran Damage to Romaine Lettuce 24 hr,[1]; [3],50.0%
same,Percent Lepidopteran Damage to Romaine Lettuce 24 hr,[1]; [4],38.5%
same,Percent Lepidopteran Damage to Romaine Lettuce 24 hr,[1]; [5],27.0%
same,Percent Lepidopteran Damage to Romaine Lettuce 24 hr,[1]; [6],22.0%
same,Percent Lepidopteran Damage to Romaine Lettuce 24 hr,[1]; [7],34.0%
same,Percent Lepidopteran Damage to Romaine Lettuce 24 hr,[1]; [8],29.5%
same,Percent Lepidopteran Damage to Romaine Lettuce 24 hr,[1]; [9],43.5%
same,Percent Lepidopteran Damage to Romaine Lettuce 24 hr,[1]; [10],18.0%
same,Percent Lepidopteran Damage to Romaine Lettuce 24 hr,[1]; [11],29.0%
same,Percent Lepidopteran Damage to Romaine Lettuce 24 hr,[1]; [12],27.0%
same,Percent Lepidopteran Damage to Romaine Lettuce 24 hr,[1]; [13],27.5%
same,Percent Lepidopteran Damage to Romaine Lettuce 48 hr,[1]; [3],57.5%
same,Percent Lepidopteran Damage to Romaine Lettuce 48 hr,[1]; [4],53.0%
same,Percent Lepidopteran Damage to Romaine Lettuce 48 hr,[1]; [5],49.5%
same,Percent Lepidopteran Damage to Romaine Lettuce 48 hr,[1]; [6],52.5%
same,Percent Lepidopteran Damage to Romaine Lettuce 48 hr,[1]; [7],63.5%
same,Percent Lepidopteran Damage to Romaine Lettuce 48 hr,[1]; [8],50.5%
same,Percent Lepidopteran Damage to Romaine Lettuce 48 hr,[1]; [9],55.5%
same,Percent Lepidopteran Damage to Romaine Lettuce 48 hr,[1]; [10],32.5%
same,Percent Lepidopteran Damage to Romaine Lettuce 48 hr,[1]; [11],35.5%
same,Percent Lepidopteran Damage to Romaine Lettuce 48 hr,[1]; [12],44.5%
same,Percent Lepidopteran Damage to Romaine Lettuce 48 hr,[1]; [13],47.5%
same,Percent Lepidopteran Damage to Romaine Lettuce 72 hr,[1]; [3],61.0%
same,Percent Lepidopteran Damage to Romaine Lettuce 72 hr,[1]; [4],68.5%
same,Percent Lepidopteran Damage to Romaine Lettuce 72 hr,[1]; [5],59.5%
same,Percent Lepidopteran Damage to Romaine Lettuce 72 hr,[1]; [6],67.0%
same,Percent Lepidopteran Damage to Romaine Lettuce 72 hr,[1]; [7],66.0%
same,Percent Lepidopteran Damage to Romaine Lettuce 72 hr,[1]; [8],63.5%
same,Percent Lepidopteran Damage to Romaine Lettuce 72 hr,[1]; [9],72.0%
same,Percent Lepidopteran Damage to Romaine Lettuce 72 hr,[1]; [10],51.0%
same,Percent Lepidopteran Damage to Romaine Lettuce 72 hr,[1]; [11],42.0%
same,Percent Lepidopteran Damage to Romaine Lettuce 72 hr,[1]; [12],47.0%
same,Percent Lepidopteran Damage to Romaine Lettuce 72 hr,[1]; [13],79.5%
same,Percent Lepidopteran Damage to Romaine Lettuce 24 hr,[2]; [3],31.0%
same,Percent Lepidopteran Damage to Romaine Lettuce 24 hr,[2]; [4],20.0%
same,Percent Lepidopteran Damage to Romaine Lettuce 24 hr,[2]; [5],36.0%
same,Percent Lepidopteran Damage to Romaine Lettuce 24 hr,[2]; [6],28.0%
same,Percent Lepidopteran Damage to Romaine Lettuce 24 hr,[2]; [7],11.5%
same,Percent Lepidopteran Damage to Romaine Lettuce 24 hr,[2]; [8],4.5%
same,Percent Lepidopteran Damage to Romaine Lettuce 24 hr,[2]; [9],7.5%
same,Percent Lepidopteran Damage to Romaine Lettuce 24 hr,[2]; [10],1.0%
same,Percent Lepidopteran Damage to Romaine Lettuce 24 hr,[2]; [11],13.0%
same,Percent Lepidopteran Damage to Romaine Lettuce 24 hr,[2]; [12],16.5%
same,Percent Lepidopteran Damage to Romaine Lettuce 24 hr,[2]; [13],22.7%
